From patent US9290737B2, “Method for enucleating nucleated erythrocyte, and enucleation inducer” (Kanazawa Medical University, priority 2009, dated 2016)
Where no end group is shown, it is not given here.

How the values were obtained:
Format in all cases: cell-based
[1] = tested on: nucleated erythrocytes derived from a fetal rat; assay: Enucleation rate of nucleated erythrocytes derived from fetal rat (DAPI staining, fluorescence microscope count); settings: vs control without peptide
Procedure: Experimental rats were bred, and peripheral blood was collected from 12 fetuses aged 13 days post coitum.
The collected peripheral blood was centrifuged at 1,000×g for 5 minutes at room temperature (centrifuge: Hitachi/05PR-22). Then, serum was removed, and blood cells were suspended in 10 ml of culture medium (supplemented with 10% FBS (Sigma/CR1211)/RPMI-1640 Medium (c) (Sigma/R8578)/1% penicillin-streptomycin (Sigma/P4333)) in a clean bench. This suspension was centrifuged again, a supernatant was removed, and the cells were resuspended in the culture medium. This manipulation was repeated twice, and finally the cells were suspended in 10 ml of the culture medium to prepare a sample for culturing peripheral blood.
A blood cell (cell) density was counted using about 10 μl of this sample and a hemocytometer (Burker-Turk Deep 1/10 mm/Erma Tokyo/7787), and the sample was diluted based on the counted value to adjust to 2×10^6 cells/ml.
(§1) This sample was diluted to a cell density of 1×10^6 cells/ml with the culture medium, to which ACTH1-24 (SEQ ID NO: 2, manufactured by Sigma) was added at a final concentration of 1 μM or 5 μM to use as a subject culture medium. The sample to which no ACTH1-24 was added was used as a control.
1 ml each of the various subject culture media was dispensed into a 4-well chamber slide glass (Chamber Slide™ System/Lab Tek (registered trademark)/177380), and cultured for a predetermined period of time in an incubator (Sakura CO2 gas Incubator/Sakura/IC-160) under the condition at 37° C. at 5% CO2.
At 0, 3, and 6 hours of the culture, the cells in each subject culture medium were fixed with glutaraldehyde (25% glutaraldehyde solution/Wako Pure Chemical Industries Ltd./073-00536) at a final concentration of 2%. DAPI (1 mg/ml of DAPI solution/DOJINDO/340-07971) for staining nuclei was dripped to the culture medium at a final volume ratio of 1/20,000, which was then shaken for 5 minutes, subsequently excited by a UV source using a fluorescence microscope (OLYMPUS IX70), and 10 fixed points were photographed. Then, the number of cells in the photograph was counted.
The enucleation rate was calculated as follows. Enucleation rate (%)={Enucleated erythrocyte count/Total cell count (Nucleated cell (including nucleated erythrocytes and mesenchymal stem cells) count+Enucleated erythrocyte count)} […]
as §1, with “CLIP” for “ACTH1-24”, “11, manufactured by Sigma) or α-MSH (SEQ ID NO: 3,” for “2,”, “neither CLIP nor α-MSH” for “no ACTH1-24”
250 μl each of the various subject culture media were dispensed in an 8-well chamber slide glass (Chamber Slide™ System/Lab TekR/177402), and cultured for a predetermined period of time in an incubator under the condition at 37° C. at 5% CO2. At 3, 6, and 9 (only for the 5-μM addition samples) hours of the culture, each subject culture medium was sampled, and the culture medium was fixed with glutaraldehyde at a final concentration of 2%. DAPI for staining nuclei was dripped to the culture medium, which was then shaken for 5 minutes, subsequently microscopically observed using a fluorescence microscope, and 10 field images were randomly determined and photographed. The number of cells in each of the photographs was counted, and the mean value thereof was calculated. The enucleation rate was calculated in the same way as in Example 1.

[2] = tested on: nucleated erythrocytes derived from human cord blood; assay: Enucleation rate of nucleated erythrocytes derived from human cord blood CD34-positive cells (DAPI staining and flow cytometry); settings: 5.0 μM added on Day 4 in phase II, measured on Day 9; DAPI staining (FIG. 7) and flow cytometry (FIG. 8)
Procedure: CD34-positive hematopoietic stem cells derived from a human (derived from the cord blood, 90% or more CD34-positive, product from Lonza:
http://catalog.takara-bio.co.jp/product/basic_info.asp?unitid=U10 0004262) were cultured in HPGM medium. The cells at a density of 2×10^4 to 2×10^5 cells/ml were cultured with 25 ng/ml of SCF, 50 ng/ml of thrombopoietin, and 50 ng/ml of Flt-3 ligand for first 7 days, and this was used as a phase I.
Next, the cells at a density of 2×10^5 cells/ml were cultured with 3 U/ml of EPO, 25 ng/ml of SCF, 10 ng/ml of IL-3, and 10 ng/ml of IL-6, and this was used as a phase II. The cells were cultured with the addition of ACTH1-24, ACTH1-39, CLIP, or α-MSH at a concentration of 5.0 μM, or ACTH1-24 at a concentration of 0.5 μM on Day 4 in the phase II.
The erythrocytes in the above-mentioned phase II cultured with ACTH1-24, ACTH1-39, CLIP, or α-MSH on Day 9 were fixed with 10% formalin, and stained with 4′,6-diamidino-2-phenylindole (DAPI). Ten photographs were randomly taken under a fluorescence microscope, and the numbers of nucleated and enucleated erythrocytes were visually counted. The measurement was carried out in the blinded manner. The enucleation rate was calculated in the same manner as in Example 1.
(§2) Double staining for glycophorin A (Gly A) and the nucleus (propidium iodide, PI) was given to blood cells in the phase II cultured with ACTH1-24, CLIP, or α-MSH on Day 9 in the same manner as in the foregoing. The cells were analyzed using a flow cytometry (automatic cell analysis sorting apparatus, FACS Calibur/Becton Dickinson). Gly A-positive/PI-negative cells (corresponding to the left upper fraction of four dot plot fractions divided by data from flow cytometry in FIG. 9B) were determined as enucleated cells, and the enucleation rate of these enucleated cells relative to the total cells was calculated.

[3] = tested on: cells differentiating into erythrocytes derived from human cord blood; assay: Enucleation efficiency of cells derived from human cord blood (flow cytometry, Gly A/PI); settings: 0.5 μM, culture as in Example 4, flow cytometry (FIG. 9A)
Procedure: as §2
ACTH1-24 at a concentration of 0.5 μM was added to the culture carried out in the same manner as in Example 4, and the enucleation rate was measured by flow cytometry.
Gly A is a surface marker of erythroblasts, reticulocytes, and mature erythrocytes. Thus, this method was cited as a method of measuring the percentage of “enucleated erythrocytes”/“cells differentiating into erythrocytes” in a population of blood cells including immature erythrocytes (see Peng J. et al., Nat. Cell Biol., 10: 314-321, 2008).

[4] = final concentration 1 μM, after 6 hours of culture
[5] = final concentration 5 μM, 3 hours of culture

Row | Substance | induction of enucleation (enucleation rate) [1, 4] | induction of enucleation (enucleation rate) [1, 5] | induction of enucleation (enucleation rate) [2] | induction of enucleation (enucleation rate) ([1]; final concentration 5 μM, after 6 hours of culture) | percentage of enucleated erythrocytes in cells differentiating into erythrocytes [3]
1 | Acetyl-(N)-Ser-Tyr-Ser-Met-Glu-His-Phe-Arg-Trp-Gly-Lys-Pro-Val-NH2 (Ac-SYSMEHFRWGKPV-NH2) [α-MSH, melanocyte-stimulating hormone peptide containing an acetyl group, manufactured by Sigma] | able to be induced | able to be induced | able to be induced |  | 
2 | RPVKVYPNGAEDESAEAFPLEF [CLIP, Corticotropin-Like Intermediate Lobe Peptide, manufactured by Sigma] | able to be induced | able to be induced | able to be induced |  | 
3 | SYSMEHFRWGKPVGKKRRPVKVYPNVAENESAEAFPLEF [ACTH1-39, adrenocorticotropic hormone, manufactured by Sigma] |  | higher than that in the control | able to be induced |  | 
4 | Ser-Tyr-Ser-Met-Glu-His-Phe-Arg-Trp-Gly-Lys-Pro-Val-Gly-Lys-Lys-Arg-Arg-Pro-Val-Lys-Val-Tyr-Pro (SYSMEHFRWGKPVGKKRRPVKVYP; ACTH1-24) | able to be induced |  | able to be induced | able to be induced | about 70%
